Measured values reported in patent US9549911B2, “Ginger metabolites and uses thereof” (North Carolina A&T State University, priority 2012, dated 2017).

Legend:
[1] = system: human colon fibroblast cells CCD-18Co; assay: in vitro; assay type: cell-based
Experimental: Growth inhibition of human cancer and normal cells. Cell growth inhibition was determined by a MTT colorimetric assay. Human colon cancer cells HCT-116, human lung cancer cells H-1299, human colon fibroblast cells CCD-18Co, and human lung fibroblast cells IMR-90 were plated in 96-well microtiter plates with 3000 cells/well and allowed to attach for 24 h at 37° C. […] After the cells were cultured for 48 h, the medium was aspirated and cells were treated with 200 μL fresh medium containing 2.41 mmol/L MTT. […] The reading reflected the number of viable cells and was expressed as a percentage of viable cells in the control. Both HCT-116 and H-1299 cells were cultured in McCoy's 5A medium. CCD-18Co and IMR-90 cells were cultured in Eagle's modified essential medium (EMEM). All of the above media were supplemented with 10% fetal bovine serum, 1% penicillin/streptomycin, and 1% glutamine, and the cells were kept in a 37° C. incubator with 95% humidity and 5% CO2.

[2] = system: A549 cells; assay: Western blotting of apoptosis and p53 pathway markers; assay type: cell-based, human; settings: A549, 20 or 40 μM; for p53 levels (Western blot): 2 and 24 hours; for pro-apoptotic markers cytochrome C, cleaved caspase 3 and 9 (Western blot): 2 hours
Experimental: Cell extracts were prepared by incubating cells for 5 minutes on ice with RIPA (Radio-Immunoprecipitation Assay) buffer (Thermo Fisher Scientific, Rockford, Ill.) supplemented with a protease and phosphatase inhibitor mix. Cell lysate was then centrifuged at 13,000 rpm at 4° C. for 20 minutes, and supernatant was harvested for Western blot analysis. Briefly, 30-60 μg of protein extract were separated on a 10-16% polyacrylamide gel and transferred on PVDF (polyvinylidene difluoride) membrane (Biorad, Hercules, Calif.). Membrane was blocked using a 1% casein solution in TBS-Tween 20. Primary rabbit antibodies were diluted in blocking solution and incubated with the membrane overnight at 4° C. After washing the membrane with 3 changes of TBS-T, secondary Horse Radish Peroxydase (HRP)-conjugated anti-rabbit antibody was diluted 1:3000 in blocking solution and incubated with PVDF membrane for 1 hour at room temperature. […] Films were developed using a SRX-101A Konica Minolta developer (Tokyo, Japan). The experiment was repeated independently twice to confirm the results. Fold-induction of proteins calculated by normalizing the band of interest to the loading control (β-actin), and this adjusted intensity what compared to the control (DMSO) sample.

[3] = system: A549 cells; assay: Intracellular glutathione (GSH, GSH/GSSG) measurement; assay type: cell-based, human; settings: A549, 10 μM
Experimental: The total GSH content was measured using a HT Glutathione Assay kit (Trevigen, Galthersburg, Md.). Briefly A549 cells were plated in 60×15 mm culture plates and were allowed to attach overnight at 37° C. Cells were treated with 10 μM M2 and incubated for 0, 2, 4, 8, or 24 hours. Cells were harvested and proteins were precipitated with 5% (w/v) metaphosphoric acid. Samples were then processed following the manufacturer's instructions. The measurement of the absorbance of 5-thio-2-nitrobenzoic acid (TNB) at 405 nm was used to quantify glutathione levels in each sample, which was then compared to the standard curve and corrected for protein concentration.
For measurement of oxidized glutathione (Glutathione Disulfide or GSSG), samples and GSSG standards were treated with 2M 4-vinylpyridine (1 μL/50 μL sample) at room temperature for one hour. 4-Vinylpyridine (Sigma Aldrich, St. Louis, Mo.) blocks free thiols present in the reaction, consequentially blocking the formation of new GSSG by GSH. The 2M solution was freshly prepared by diluting 4-vinylpyridine in ethanol in a ratio of approximately 1:3.6. After incubation, samples were processed using the Trevigen kit's protocol and absorbance was measured at 405 nm as described herein.
The quantity of reduced cellular glutathione (or GSH) is obtained by subtracting the oxidized samples values from the total glutathione values or: GSH(reduced)=GSH(total)−GSSG(oxidized). Ratios of reduced to oxidized glutathione are shown to further represent cellular redox status after treatment with 6S or M2.

[4] = system: HCT-116 cells; assay: TUNEL apoptosis assay (Part 2); assay type: cell-based, human; settings: HCT-116, 20 or 40 μM
Experimental: HCT-116 and H1299 cells were seeded in 6-well plates at 1×10^5 cells/well and incubated at 37° C. in 5% CO2 incubator. After 24 hours, fresh media supplemented with DMSO (control), [6]-shogaol, M2, M6, or M13 metabolites (20 μM or 40 μM) were added to the wells. After 6 or 24 hours incubation at 37° C. in 5% CO2 incubator, cells were washed and pre-treated for 15 min at room temperature with a solution of 20 μg/ml proteinase K. Cells were then washed twice with phosphate buffer saline pH 7.4 (PBS) and fixed for 10 min at room temperature using 10% neutral formaldehyde solution. After 2 washes in ddH2O, cells were resuspended in 100 μL ddH2O and applied on silanized microscope slides. Slides were incubated overnight at 37° C., and washed twice with PBS. TUNEL assay was then carried out according to the manufacturer's protocol. Cells were observed under 400× power using a Zeiss microscope A1 (Thornwood, N.Y.). 10 fields per slide were evaluated, and TUNEL+ cells (with brown coloration in the nucleus) were expressed as a percentage of the total number of cells contained in a field.

Row | SMILES | IC50 [1] | p53 levels (Western blot) [2] | pro-apoptotic markers cytochrome C, cleaved caspase 3 and 9 (Western blot) [2] | GSH/GSSG ratio ([3]; 2 hours) | intracellular GSH levels ([3]; 2 hours) | GSH/GSSG ratio ([3]; 4 hours) | intracellular GSH levels ([3]; 8 hours) | GSH/GSSG ratio ([3]; 24 hours) | intracellular GSH levels compared to baseline ([3]; 24 hours) | induction of apoptosis (TUNEL) versus DMSO ([4]; 6 hours) | induction of apoptosis (TUNEL) versus DMSO ([4]; 24 hours)
1 | CCCCC/C=C/C(=O)CCc1ccc(O)c(OC)c1 [[6]-shogaol, reference compound] | 43.9 µM | increase in p53 levels | elevated after 2 hours | significantly lower | significantly depleted | significantly lower | significantly lower | significantly higher | significantly increased | higher levels of apoptosis | –
2 | CCCCCC(CC(=O)CCc1ccc(O)c(OC)c1)SC[C@H](N)C(=O)O (some centres unmarked) [M2, 5-cysteinyl-[6]-shogaol] | 99.2 µM | increase in p53 levels | elevated after 2 hours | – | significantly depleted | significantly lower | significantly higher | significantly higher | significantly increased | higher levels of apoptosis | Apoptosis was observed
